Experimental findings from ChEMBL document CHEMBL3045382, “Synthesis of a ligandquencher conjugate for the ligand binding study of the aryl hydrocarbon receptor using a FRET assay” (Med Chem Res, 2012) are described below.

The nature of series [1]: Cytotoxicity against rat H4G1.1c3 cells at 10 to 50 uM after 24 hr. It counts as cell-based.
Series [2] concerns the target T1, Aryl hydrocarbon receptor (Homo sapiens, UniProt P35869).
T1 sequence (P35869 whole entry): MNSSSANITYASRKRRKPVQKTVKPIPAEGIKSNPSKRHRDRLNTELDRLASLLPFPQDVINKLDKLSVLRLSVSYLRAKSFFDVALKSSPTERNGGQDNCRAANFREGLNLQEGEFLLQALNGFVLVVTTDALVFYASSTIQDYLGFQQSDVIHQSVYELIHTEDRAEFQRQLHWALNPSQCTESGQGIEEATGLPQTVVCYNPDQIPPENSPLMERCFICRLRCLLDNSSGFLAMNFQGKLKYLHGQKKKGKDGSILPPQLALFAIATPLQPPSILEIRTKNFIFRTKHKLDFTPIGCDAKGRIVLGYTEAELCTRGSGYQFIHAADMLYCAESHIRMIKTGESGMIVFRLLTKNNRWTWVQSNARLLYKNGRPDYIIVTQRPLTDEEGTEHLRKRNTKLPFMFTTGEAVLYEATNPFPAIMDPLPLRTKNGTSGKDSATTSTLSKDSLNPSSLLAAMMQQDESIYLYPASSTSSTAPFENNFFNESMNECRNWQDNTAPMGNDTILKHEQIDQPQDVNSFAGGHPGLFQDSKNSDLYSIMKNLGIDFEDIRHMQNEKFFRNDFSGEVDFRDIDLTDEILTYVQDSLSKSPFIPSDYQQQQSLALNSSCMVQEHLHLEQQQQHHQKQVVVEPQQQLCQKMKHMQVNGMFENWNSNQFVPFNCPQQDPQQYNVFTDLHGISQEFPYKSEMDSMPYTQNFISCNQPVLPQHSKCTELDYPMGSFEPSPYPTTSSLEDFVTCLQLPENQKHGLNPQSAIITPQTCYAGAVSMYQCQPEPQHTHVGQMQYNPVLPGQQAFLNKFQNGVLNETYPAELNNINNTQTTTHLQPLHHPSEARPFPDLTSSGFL
Kind of series: Binding affinity to aryl hydrocarbon receptor in Homo sapiens (human) Hep3B cells assessed as upregulation of DRE-driven luciferase expression at 10 uM after 6 hr by Western blot analysis. It counts as cell-based. The settings on record: hep 3b2, 6 h.

Series [3] deals with T1, Aryl hydrocarbon receptor. Kind of series: Binding affinity to full length N-terminal GFP-fused Homo sapiens (human) aryl hydrocarbon receptor ligand binding domain (848 amino acid residues) expressed in baculovirus infected Sf9 cells assessed as fluorescence quenching at 10 uM after 10 min by fluorescence microscopic analysis. The conditions noted are these: sf9, 10 min.

The target in series [4] is T1, Aryl hydrocarbon receptor. Description: Binding affinity to full length N-terminal GFP-fused Homo sapiens (human) aryl hydrocarbon receptor ligand binding domain (848 amino acid residues) expressed in baculovirus infected Sf9 cells assessed as fluorescence quenching at 10 uM after 5 min by fluorescence microscopic analysis. The conditions noted are these: sf9, 5 min.

The target in series [5] is T2, Aryl hydrocarbon receptor (Rattus norvegicus, UniProt P41738).
T2 sequence (P41738 whole entry): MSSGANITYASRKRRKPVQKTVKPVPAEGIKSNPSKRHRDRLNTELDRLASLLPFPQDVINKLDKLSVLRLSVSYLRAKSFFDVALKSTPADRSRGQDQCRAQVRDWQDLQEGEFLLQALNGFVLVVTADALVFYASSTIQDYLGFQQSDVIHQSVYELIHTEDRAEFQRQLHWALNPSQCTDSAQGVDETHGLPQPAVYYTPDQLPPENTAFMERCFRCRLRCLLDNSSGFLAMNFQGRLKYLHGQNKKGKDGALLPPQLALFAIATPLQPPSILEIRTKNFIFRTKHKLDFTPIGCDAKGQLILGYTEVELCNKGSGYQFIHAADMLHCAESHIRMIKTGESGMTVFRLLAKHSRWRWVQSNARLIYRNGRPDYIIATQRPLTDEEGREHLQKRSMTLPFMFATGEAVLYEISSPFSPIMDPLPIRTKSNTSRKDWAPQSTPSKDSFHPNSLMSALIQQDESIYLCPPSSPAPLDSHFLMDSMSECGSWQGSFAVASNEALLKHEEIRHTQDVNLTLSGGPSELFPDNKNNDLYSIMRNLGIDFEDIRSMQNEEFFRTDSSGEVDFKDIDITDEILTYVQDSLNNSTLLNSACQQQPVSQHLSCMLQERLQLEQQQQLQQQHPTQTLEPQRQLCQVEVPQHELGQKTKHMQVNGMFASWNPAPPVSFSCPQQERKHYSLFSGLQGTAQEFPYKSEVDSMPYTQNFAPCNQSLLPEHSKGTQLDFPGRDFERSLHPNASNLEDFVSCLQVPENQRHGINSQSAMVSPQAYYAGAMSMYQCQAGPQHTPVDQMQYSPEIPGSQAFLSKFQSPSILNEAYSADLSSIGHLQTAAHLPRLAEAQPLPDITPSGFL
Kind of series: Partial agonist activity at DRE-driven GFP-fused AhR ligand binding domain in rat H4G1.1c3 cells assessed as induction of DRE-driven GFP expression at 50 uM after 48 hr by fluorescence assay. It counts as cell-based.

The target of series [6] is T1, Aryl hydrocarbon receptor. Description: Competitive binding affinity to aryl hydrocarbon receptor in Homo sapiens (human) Hep3B cells assessed as effect on betaNF-mediated DRE-driven luciferase expression at 10 uM after 6 hr by Western blot analysis relative to control. It counts as cell-based. The settings on record: hep 3b2, 6 h. Background: In western blotting, separated proteins are transferred to a membrane and probed.

Series [7] deals with T1, Aryl hydrocarbon receptor. Kind of series: Binding affinity to full length N-terminal GFP-fused Homo sapiens (human) aryl hydrocarbon receptor ligand binding domain (848 amino acid residues) expressed in baculovirus infected Sf9 cells assessed as fluorescence quenching at 10 uM up to 30 min by fluorescence microscopic analysis. The conditions noted are these: sf9, 0.5 h.

In series [8] the target is T1, Aryl hydrocarbon receptor. Kind of series: Competitive binding affinity to aryl hydrocarbon receptor in Homo sapiens (human) Hep3B cells assessed as supression of betaNF-mediated DRE-driven luciferase expression at 10 uM after 6 hr by Western blot analysis relative to control. Type of series: cell-based. The conditions noted are these: hep 3b2, 6 h.
The target in series [9] is T1, Aryl hydrocarbon receptor. Description: Binding affinity to aryl hydrocarbon receptor in Homo sapiens (human) Hep3B cells assessed as upregulation of DRE-driven luciferase expression at 10 uM after 6 hr by Western blot analysis relative to control. The settings on record: Hep3B cells with DRE-driven luciferase reporter, read-out: FC. It counts as cell-based, Hep 3B2.

Series [10] addresses T1, Aryl hydrocarbon receptor. Kind of series: Competitive binding affinity to full length N-terminal GFP-fused Homo sapiens (human) aryl hydrocarbon receptor ligand binding domain (848 amino acid residues) expressed in baculovirus infected Sf9 cells assessed as reversal of betaNFQ-mediated fluorescence quenching at 5 uM measured at 5 min by fluorescence microscopic analysis. The settings on record: sf9, 5 min.

The target in series [11] is T1, Aryl hydrocarbon receptor. Kind of series: Competitive binding affinity to full length N-terminal GFP-fused Homo sapiens (human) aryl hydrocarbon receptor ligand binding domain (848 amino acid residues) expressed in baculovirus infected Sf9 cells assessed as reversal of 4-((4-(dimethylamino)phenyl)diazenyl)-N-(2-(2-(2-(2-hydroxyethoxy)ethoxy)ethoxy)ethyl)benzamide4-((4-(dimethylamino)phenyl)diazenyl)-N-(2-(2-(2-(2-hydroxyethoxy)ethoxy)ethoxy)ethyl)benzamide-mediated fluorescence quenching at 5 uM measured at 5 min by fluorescence microscopic analysis. The conditions noted are these: sf9, 5 min.

Series [12] concerns the target T2, Aryl hydrocarbon receptor. Kind of series: Agonist activity at DRE-driven GFP-fused AhR ligand binding domain in rat H4G1.1c3 cells assessed as induction of DRE-driven GFP expression at 10 uM after 48 hr by fluorescence assay. It counts as cell-based.

On to `CN(C)c1ccc(/N=N/c2ccc(C(=O)NCCOCCOCCOCCOCCOCCOCCOCCOCc3ccc(-c4cc(=O)c5c(ccc6ccccc65)o4)cc3)cc2)cc1`, for which the Activity result in series [1] is “Toxic”.

On to `CN(C)c1ccc(/N=N/c2ccc(C(=O)NCCOCCOCCOCCO)cc2)cc1`, for which the Activity entry is on record as “Not Active” in series [2]; 16% in series [3]; 13% in series [4]; “Not Active” in series [5]; “Not Active” in series [6].

On to `CN(C)c1ccc(/N=N/c2ccc(C(=O)NCCOCCOCCOCCOCc3ccc(-c4cc(=O)c5c(ccc6ccccc65)o4)cc3)cc2)cc1`, for which the Activity in [7] was 29%; in series [3], 24%; in series [1], “Non-toxic”; in series [4] it was 18%; in series [5], “Active”. The “fold change (FC)” value in series [8] amounted to 23. Besides, the fold induction at 6 h, 10 µM in series [9] stood at 14.

As for `Cc1ccc2cc3c(ccc4ccccc43)c3c2c1CC3` [3-METHYLCHOLANTHRENE], the Activity result in [10] is given as “Active”; in series [11] it was “Not Active”.

For the compound `O=c1cc(-c2ccccc2)oc2ccc3ccccc3c12` [BETA-NAPHTHOFLAVONE], in series [12], the result was Active. In addition, in series [9], the fold induction at 6 h, 10 µM was 75.
